This is an account of results in patent publication US20260176320A1, “MODULATORS OF G-PROTEIN COUPLED RECEPTORS” (priority 2018, published 2026).

Where two headings read alike, the source gives them in different places. Square brackets hold non-standard residues; d marks the D form. Peptide text beside a SMILES is read from it. * marks the point of attachment. X1 = O=C(CSCC(=O)*)NCCN1C(=O)c2ccccc2C1=O; Aib = CC(C)(N)C(=O)O

Common to all, as to type: cell-based
Assay [1] concerns the target T1, GLP-1R (Homo sapiens, UniProt P43220). Put plainly: HitHunter cAMP assay (GLP-1R). The settings on record: cAMP; for Emax: read-out: (Emax) GLP-1R. The essentials: (§1)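 Luminescent readout of cAMP by enzyme-fragment immunocompetition gave agonist concentration-response data. Cells (10,000/well) sat in HBSS buffer containing IBMX 625 μM, HEPES 10 mM and BSA 0.2%, exposed to agonist for 30 min at room temperature.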

In the next assay the target is T2, GIP-R (Homo sapiens, UniProt P48546).
T2 sequence (P48546 22-466): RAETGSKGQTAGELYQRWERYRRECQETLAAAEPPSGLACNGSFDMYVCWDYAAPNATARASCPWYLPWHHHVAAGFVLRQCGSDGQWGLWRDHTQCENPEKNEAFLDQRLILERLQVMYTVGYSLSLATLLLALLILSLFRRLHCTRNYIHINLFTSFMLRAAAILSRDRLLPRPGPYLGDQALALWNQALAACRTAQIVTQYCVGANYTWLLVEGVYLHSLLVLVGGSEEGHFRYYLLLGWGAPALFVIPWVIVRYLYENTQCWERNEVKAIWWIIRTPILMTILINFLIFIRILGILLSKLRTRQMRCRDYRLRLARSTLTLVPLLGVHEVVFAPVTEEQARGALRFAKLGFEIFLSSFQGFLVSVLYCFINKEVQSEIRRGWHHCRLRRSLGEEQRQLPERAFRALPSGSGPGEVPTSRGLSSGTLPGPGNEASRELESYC
Put plainly: HitHunter cAMP assay (GIP-R). The settings on record: cAMP; for Emax: read-out: (Emax) GIP-R. The essentials:
as §1

For assay [2], the target named is T1, GLP-1R. Put plainly: PathHunter β-arrestin assay. The essentials: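 Overnight-plated cells; 0.2% BSA medium; agonist 22-pt 2× dilution series, duplicate; 90 min, 37 °C/5% CO2; detection reagent 3 h RT, dark; luminescence.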
Where [3] appears, read: Table 3, read-out: EC50 GLP-1R/nM.
Setting [4] is: Table 3A, read-out: EC50 GLP-1R/nM.
Setting [5] is: Table 3, read-out: EC50 GIP-R/nM.
The mark [6] stands for this setting: Table 3A, read-out: EC50 GIP-R/nM.
Setting [7] is: PathHunter β-arrestin assay, read-out: β-arrestin activity EC50.

T1 sequence (P43220 24-463): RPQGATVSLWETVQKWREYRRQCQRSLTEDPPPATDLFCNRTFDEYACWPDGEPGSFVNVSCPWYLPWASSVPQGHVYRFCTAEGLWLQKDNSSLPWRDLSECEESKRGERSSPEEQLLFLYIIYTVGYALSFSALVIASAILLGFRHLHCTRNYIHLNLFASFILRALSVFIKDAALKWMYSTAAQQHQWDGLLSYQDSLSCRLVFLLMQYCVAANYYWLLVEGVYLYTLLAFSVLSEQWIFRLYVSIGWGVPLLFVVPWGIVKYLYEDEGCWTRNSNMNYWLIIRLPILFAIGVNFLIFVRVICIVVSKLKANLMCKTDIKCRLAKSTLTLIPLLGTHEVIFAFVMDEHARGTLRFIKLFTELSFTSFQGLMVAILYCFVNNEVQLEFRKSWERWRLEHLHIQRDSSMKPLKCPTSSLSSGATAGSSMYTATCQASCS

As to `CCCCCCCCCCCCCCCC(=O)N[C@@H](CCC(=O)NCCCC[C@H](NC(=O)[C@H](CO)NC(=O)[C@@H]1CCCN1C(=O)[C@@H]1CCCN1C(=O)[C@@H]1CCCN1C(=O)[C@H](C)NC(=O)CNC(=O)[C@H](CO)NC(=O)[C@H](CO)NC(=O)[C@@H]1CCCN1C(=O)CNC(=O)CNC(=O)[C@H](C)NC(=O)[C@H](CC(C)C)NC(=O)[C@H](CC(C)C)NC(=O)[C@H](Cc1c[nH]c2ccccc12)NC(=O)[C@H](CC(N)=O)NC(=O)[C@@H](NC(=O)[C@H](Cc1ccccc1)NC(=O)[C@H](CCC(=O)O)NC(=O)C(C)(C)NC(=O)[C@H](C)NC(=O)[C@H](C)NC(=O)[C@H](CCC(N)=O)NC(=O)[C@H](CCCCN)NC(=O)[C@H](CC(=O)O)NC(=O)[C@H](CC(C)C)NC(=O)[C@H](Cc1ccc(O)cc1)NC(=O)[C@@H](NC(=O)[C@H](CO)NC(=O)[C@H](Cc1ccc(O)cc1)NC(=O)[C@H](CC(=O)O)NC(=O)[C@H](CO)NC(=O)[C@@H](NC(=O)[C@H](Cc1ccccc1)NC(=O)[C@@H](NC(=O)CNC(=O)[C@H](CCC(=O)O)NC(=O)CSCC(=O)NCCN1CCNCC1=O)[C@@H](C)O)[C@@H](C)O)[C@@H](C)CC)C(C)C)C(N)=O)C(=O)O` [Compound 33], the Emax worked out at 100% on GLP-1R [1] (Table 3), 100% at GLP-1R [1] (Table 3A), 43% on GIP-R (Table 3) and 43% at GIP-R (Table 3A). The EC50 at GLP-1R [1] (setting [3]) was 0.1 to 1 nM; on GLP-1R [1] (setting [4]), 0.1 to 1 nM; on GIP-R (setting [5]), 10 to 100 nM; at GIP-R (setting [6]), 10 to 100 nM; at GLP-1R [2] (setting [7]) it was over 1000 nM.
Turning to `CC[C@H](C)[C@H](NC(=O)[C@H](CO)NC(=O)[C@H](Cc1ccc(O)cc1)NC(=O)[C@H](CC(=O)O)NC(=O)[C@H](CO)NC(=O)[C@@H](NC(=O)[C@H](Cc1ccccc1)NC(=O)[C@@H](NC(=O)CNC(=O)[C@H](CCC(=O)O)NC(=O)CNC(=O)CCCCN1C(=O)CSC1=O)[C@@H](C)O)[C@@H](C)O)C(=O)N[C@@H](Cc1ccc(O)cc1)C(=O)N[C@@H](CC(C)C)C(=O)N[C@@H](CC(=O)O)C(=O)N[C@@H](CCCCN)C(=O)N[C@@H](CCC(N)=O)C(=O)N[C@@H](C)C(=O)N[C@@H](C)C(=O)NC(C)(C)C(=O)N[C@@H](CCC(=O)O)C(=O)N[C@@H](Cc1ccccc1)C(=O)N[C@H](C(=O)N[C@@H](CC(N)=O)C(=O)N[C@@H](Cc1c[nH]c2ccccc12)C(=O)N[C@@H](CC(C)C)C(=O)N[C@@H](CC(C)C)C(=O)N[C@@H](C)C(=O)NCC(=O)NCC(=O)N1CCC[C@H]1C(=O)N[C@@H](CO)C(=O)N[C@@H](CO)C(=O)NCC(=O)N[C@@H](C)C(=O)N1CCC[C@H]1C(=O)N1CCC[C@H]1C(=O)N1CCC[C@H]1C(=O)N[C@@H](CO)C(=O)N[C@@H](CCCCN)C(N)=O)C(C)C` [Compound 171], the Emax on GLP-1R [1] (Table 3) and at GLP-1R [1] (Table 3A) was 93 to 98% in each case. Besides, the EC50 at GLP-1R [1] (setting [3]) is 1 to 10 nM; at GLP-1R [1] (setting [4]) it was 1 to 10 nM; at GIP-R (setting [5]) it was over 1000 nM; at GIP-R (setting [6]), over 1000 nM; at GLP-1R [2] (setting [7]) it was over 1000 nM. For the same compound, the Emax at 1 µM at GIP-R (read-out: (Emax) GIP-R at 1 μM, Table 3, at 1 μM) stood at 6.5%.
Consider `CC[C@H](C)[C@H](NC(=O)[C@H](CO)NC(=O)[C@H](Cc1ccc(O)cc1)NC(=O)[C@H](CC(=O)O)NC(=O)[C@H](CO)NC(=O)[C@@H](NC(=O)[C@H](Cc1ccccc1)NC(=O)[C@@H](NC(=O)CNC(=O)[C@H](CCC(=O)O)NC(=O)C1(C(=O)NCCN2C(=O)CSC2=O)CC1)[C@@H](C)O)[C@@H](C)O)C(=O)N[C@@H](Cc1ccc(O)cc1)C(=O)N[C@@H](CC(C)C)C(=O)N[C@@H](CC(=O)O)C(=O)N[C@@H](CCCCN)C(=O)N[C@@H](CCC(N)=O)C(=O)N[C@@H](C)C(=O)N[C@@H](C)C(=O)NC(C)(C)C(=O)N[C@@H](CCC(=O)O)C(=O)N[C@@H](Cc1ccccc1)C(=O)N[C@H](C(=O)N[C@@H](CC(N)=O)C(=O)N[C@@H](Cc1c[nH]c2ccccc12)C(=O)N[C@@H](CC(C)C)C(=O)N[C@@H](CC(C)C)C(=O)N[C@@H](C)C(=O)NCC(=O)NCC(=O)N1CCC[C@H]1C(=O)N[C@@H](CO)C(=O)N[C@@H](CO)C(=O)NCC(=O)N[C@@H](C)C(=O)N1CCC[C@H]1C(=O)N1CCC[C@H]1C(=O)N1CCC[C@H]1C(=O)N[C@@H](CO)C(=O)N[C@@H](CCCCN)C(N)=O)C(C)C` [Compound 135], for which the Emax on GLP-1R [1] (Table 3) lay within 106 to 111%; at GLP-1R [1] (Table 3A) it was 106 to 111%; on GIP-R (Table 3), 15 to 22%; on GIP-R (Table 3A), 15 to 22%. Moreover, the EC50 was under 1 nM on GLP-1R [1] (setting [3]); under 1 nM at GLP-1R [1] (setting [4]); 10 to 100 nM at GIP-R (setting [5]); 10 to 1000 nM on GIP-R (setting [6]); over 1000 nM on GLP-1R [2] (setting [7]).
`CC[C@H](C)[C@H](NC(=O)[C@H](CO)NC(=O)[C@H](CC(C)C)NC(=O)[C@H](CC(=O)O)NC(=O)[C@H](CO)NC(=O)[C@@H](NC(=O)[C@H](Cc1ccccc1)NC(=O)[C@@H](NC(=O)CNC(=O)[C@H](CCC(=O)O)NC(=O)CSCC(=O)NCCN1C(=O)c2ccccc2C1=O)[C@@H](C)O)[C@@H](C)O)C(=O)N[C@@H](Cc1ccc(O)cc1)C(=O)N[C@@H](CC(C)C)C(=O)N[C@@H](CC(=O)O)C(=O)N[C@@H](CCCCN)C(=O)N[C@@H](CCC(N)=O)C(=O)N[C@@H](C)C(=O)N[C@@H](C)C(=O)NC(C)(C)C(=O)N[C@@H](CCC(=O)O)C(=O)N[C@@H](Cc1ccccc1)C(=O)N[C@H](C(=O)N[C@@H](CC(N)=O)C(=O)N[C@@H](Cc1c[nH]c2ccccc12)C(=O)N[C@@H](CC(C)C)C(=O)N[C@@H](CC(C)C)C(=O)N[C@@H](C)C(=O)NCC(=O)NCC(=O)N1CCC[C@H]1C(=O)N[C@@H](CO)C(=O)N[C@@H](CO)C(=O)NCC(=O)N[C@@H](C)C(=O)N1CCC[C@H]1C(=O)N1CCC[C@H]1C(=O)N1CCC[C@H]1C(=O)N[C@@H](CO)C(=O)N[C@@H](CCCCN)C(N)=O)C(C)C` [Compound 151] (X1-EGTFTSDLSIYLDKQAA[Aib]EFVNWLLAGGPSSGAPPPSK-NH2): the EC50 on GLP-1R [1] (EC50 GLP-1R/nM, Table 3) is 1 to 10 nM; on GLP-1R [1] (EC50 GLP-1R/nM, Table 3A) it was 1 to 10 nM; on GIP-R (EC50 GIP-R/nM, Table 3), 0.1 to 1 nM; on GIP-R (EC50 GIP-R/nM, Table 3A), 0.1 to 1 nM; at GLP-1R [2], over 1000 nM. Also, the maximal response (Emax) at GLP-1R [1] (Table 3) lay in the range of 103 to 107%; on GLP-1R [1] (Table 3A) it was 103 to 107%; at GIP-R (Table 3), 117 to 119%; at GIP-R (Table 3A), 117 to 119%.
For `CCCCCCCCCCCCCCCC(=O)N[C@@H](CCC(=O)NCCCC[C@H](NC(=O)[C@H](CO)NC(=O)[C@@H]1CCCN1C(=O)[C@@H]1CCCN1C(=O)[C@@H]1CCCN1C(=O)[C@H](C)NC(=O)CNC(=O)[C@H](CO)NC(=O)[C@H](CO)NC(=O)[C@@H]1CCCN1C(=O)CNC(=O)CNC(=O)[C@H](C)NC(=O)[C@H](CC(C)C)NC(=O)[C@H](CC(C)C)NC(=O)[C@H](Cc1c[nH]c2ccccc12)NC(=O)[C@H](CC(N)=O)NC(=O)[C@@H](NC(=O)[C@H](Cc1ccccc1)NC(=O)[C@H](CCC(=O)O)NC(=O)C(C)(C)NC(=O)[C@H](C)NC(=O)[C@H](C)NC(=O)[C@H](CCC(N)=O)NC(=O)[C@H](CCCCN)NC(=O)[C@H](CC(=O)O)NC(=O)[C@H](CC(C)C)NC(=O)[C@H](Cc1ccc(O)cc1)NC(=O)[C@@H](NC(=O)[C@H](CO)NC(=O)[C@H](Cc1ccc(O)cc1)NC(=O)[C@H](CC(=O)O)NC(=O)[C@H](CO)NC(=O)[C@@H](NC(=O)[C@H](Cc1ccccc1)NC(=O)[C@@H](NC(=O)CNC(=O)[C@H](CCC(=O)O)NC(=O)CN(C)C(=O)CCN1CCCCC1=O)[C@@H](C)O)[C@@H](C)O)[C@@H](C)CC)C(C)C)C(N)=O)C(=O)O` [Compound 206], the values for the EC50 on GLP-1R [1] (setting [4]), at GIP-R (setting [6]) and on GLP-1R [2] (setting [7]) were under 0.1 nM, 100 to 1000 nM and over 1000 nM, respectively. Also, the Emax on GIP-R (Table 3A) was found to be 18%.
